Measurements as given in article PMC10845954, “Novel antimicrobial peptides identified in legume plant, Medicago truncatula” (Microbiology Spectrum, 2024).
Where a SMILES comes first, the peptide text is derived from it. Where no end group is shown, it is not given here.

Tested on: human erythrocytes
Assay: Human red blood cell hemolysis
Type: cell-based
Details: 100 µM
Procedure: With a few minor modifications, red blood cell hemolysis was carried out as previously described ([21]). On a 96-well microtiter plate, 100, 10, 1, and 0 µM NCRs, NCR094 and NCR992 were placed in each well, and […] of 1× PBS was carried out across the plate. Each well received an equivalent volume of 1% human erythrocytes that had been re-suspended in PBS after being washed once with PBS (5 minutes by centrifugation at 3,000 × g to prevent non-specific red blood cell lysis). The plate was then incubated at 37°C for 24 hrs.
As negative and positive controls for hemolysis, respectively, PBS alone and 1% sodium hypochlorite alone were utilized. At a wavelength of 405 nm, hemoglobin release was measured, and the hemolytic capability was expressed as a percentage of the sodium hypochlorite control (100%). The normalization equation normalization = NCR average – negative control average was used to compute the hemolysis percentage. Hemolysis percentage = normalization of NCRs ÷ average of positive control × 100. The hemolysis of 20% and above was considered as toxic to human red blood cells as reported previously ([22]). The mean values and standard deviation (SD) for each assay were carried out in triplicate and repeated three times.
Fig 6 The hemolysis % of the NCRs (NCR094 and NCR992) toward human red blood cells. One percent human red blood cells were treated with 100 µM of the NCRs. (A) NCR094 WT, NCR094.1, NCR094.2, and NCR094.3. (B) NCR992 WT, NCR992.1, NCR992.2, and NCR992 for 16 hrs without shaking. One hundred […] of supernatants was transferred into a new 96-well plate, and the absorbance was measured using a plate reader at 405 nm wavelength. Polymyxin B treatment was […] control. The results were represented as average of the % hemolysis and standard deviations from three independent experiments.
Figure S.1. Dose-dependent hemolysis assay for the NCR collection used in this study.
1% Human red blood cells were treated with 10-fold concentration (100, 10, 1, 0 μM) of NCRs A) (NCR094.1, B)
NCR992 WT) C) NCR992.1, D) NCR992.2, and E) NCR992.1for 18 hrs without shaking. […] of supernatants
were transferred into new 96-well plate and the absorbance was measured using a plate reader at 405 nm wavelength.
The results were represented as average of the % hemolysis and error bars were ± SD values from three independent
(also on this page, place not known: 10100 % of Toxicity 10100 80% of Toxicity 10100 % of Toxicity 10100 % of Toxicity 10100 S- % of Toxicity A)

In order of falling hemolysis %:
1. MSEFGMIRRSISYKSQSHEAY [NCR992.3]  93.34%
2. CC[C@H](C)[C@H](N)C(=O)N[C@@H](CO)C(=O)N[C@@H](Cc1ccc(O)cc1)C(=O)N[C@@H](CCCCN)C(=O)N[C@@H](CS)C(=O)N[C@@H](CCC(N)=O)C(=O)N[C@@H](CS)C(=O)N[C@@H](Cc1c[nH]cn1)C(=O)N[C@@H](CCC(=O)O)C(=O)N[C@@H](C)C(=O)N[C@@H](Cc1ccc(O)cc1)C(=O)O [NCR992.2] (H-ISYKCQCHEAY-OH; N-terminus and C-terminus assumed)  66.77%
3. CC[C@H](C)[C@H](NC(=O)[C@H](CCSC)NC(=O)CNC(=O)[C@H](Cc1ccccc1)NC(=O)[C@H](CCC(=O)O)NC(=O)[C@H](CS)NC(=O)[C@@H](N)CCSC)C(=O)N[C@@H](CCCNC(=N)N)C(=O)N[C@@H](CCCNC(=N)N)C(=O)N[C@@H](CS)C(=O)O [NCR992.1] (H-MCEFGMIRRC-OH; N-terminus and C-terminus assumed)  63.67%
4. CC(C)C[C@H](NC(=O)[C@@H](N)Cc1ccc(O)cc1)C(=O)N[C@@H](CCCCN)C(=O)N[C@@H](CS)C(=O)N[C@@H](CCCCN)C(=O)N[C@H](C(=O)N[C@H](C(=O)N[C@@H](Cc1c[nH]cn1)C(=O)N[C@@H](CC(=O)O)C(=O)N[C@@H](CS)C(=O)N1CCC[C@H]1C(=O)N[C@@H](CCCCN)C(=O)O)C(C)C)[C@@H](C)O [NCR094.1] (H-YLKCKTVHDCPK-OH; N-terminus and C-terminus assumed)  49.38%
5. CC[C@H](C)[C@H](NC(=O)[C@H](CCCCN)NC(=O)[C@@H](NC(=O)[C@H](C)NC(=O)[C@H](CCCNC(=N)N)NC(=O)[C@H](CS)NC(=O)[C@H](Cc1ccc(O)cc1)NC(=O)[C@H](CC(N)=O)NC(=O)CNC(=O)[C@@H](NC(=O)[C@H](CS)NC(=O)[C@H](CCCNC(=N)N)NC(=O)[C@H](Cc1ccc(O)cc1)NC(=O)[C@@H](NC(=O)[C@@H](NC(=O)[C@@H](N)CCC(N)=O)C(C)C)C(C)C)C(C)C)C(C)C)C(=O)N[C@@H](CCCNC(=N)N)C(=O)N[C@@H](CCCNC(=N)N)C(=O)N[C@@H](Cc1c[nH]c2ccccc12)C(=O)N[C@@H](CC(N)=O)C(=O)N[C@@H](CC(C)C)C(=O)NCC(=O)O [NCR094.2] (H-QVVYRCVGNYCRAVKIRRWNLG-OH; N-terminus and C-terminus assumed)  8.99%
